The text below walks through data of patent US9622995B2, “Treatment of disorders associated with G protein-coupled receptor 35 (GPR35)” (TEMPLE UNIVERSITY—OF THE COMMONWEALTH SYSTEM OF HIGHER …, priority 2009, dated 2017).

Chain of GPR35 (Q9HC97 whole entry S294R): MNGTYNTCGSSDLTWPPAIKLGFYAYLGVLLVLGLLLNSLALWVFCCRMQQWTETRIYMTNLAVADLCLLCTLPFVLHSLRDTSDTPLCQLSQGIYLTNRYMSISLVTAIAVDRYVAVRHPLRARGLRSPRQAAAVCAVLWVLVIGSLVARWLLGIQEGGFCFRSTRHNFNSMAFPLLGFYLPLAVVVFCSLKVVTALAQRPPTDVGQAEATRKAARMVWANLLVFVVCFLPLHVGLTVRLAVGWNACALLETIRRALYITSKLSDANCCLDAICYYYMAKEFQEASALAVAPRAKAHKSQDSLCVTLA

The first experiment concerns the target GPR35 (Homo sapiens, UniProt Q9HC97, S294R).
Experiment: not given
Conditions: UGPR35β cells.
Take pyrantel tartrate: the “activity in GPR35 internalization assay, in words” value was “inactive”.

The same experiment, now with this note: UGPR35β cells, On-Cell Western; log(EC50).
Regarding oxantel pamoate [Compound 2], the “log EC50 of GPR35 internalization” value is recorded as −7.772.

The experiment is the same for the next values; noted with them: read-out: EC50 of GPR35 internalization; UGPR35β cells, On-Cell Western; corresponds to the log EC50.
Turning to oxantel pamoate [Compound 2], the 50% effective concentration (EC50) (as a rule, the midpoint of the concentration-response curve) was 17 nM.

For the next experiment, the target named is T1, GPR35a (Homo sapiens, UniProt Q9HC97, S294R).
T1 sequence (Q9HC97 whole entry S294R): as above
Experiment: not given
The note with it: 3 μM; data not shown.
`N#CC(=C(N)Sc1ccccc1N)C(C#N)=C(N)Sc1ccccc1N` [Compound U0126, 1,4-diamino-2,3-dicyano-1,4-bis(2-aminophenylthio)-butadiene]: the “effect on ERK1/2 activation” value is on record as “inhibited ERK1/2 activation” and the “effect on pamoic acid-induced ERK activation” value is “abolished pamoic acid-induced ERK activation”.

Another experiment concerns the target T1, GPR35a. Description: β-arrestin2-GFP redistribution/aggregation in UGPR35β cells. The experiment is classed as cell-based. Conditions: compared with the binaphthyl compounds. On the set-up: expressed in transfected cells. An excerpt: This cellular assay utilizes the intracellular β-arrestin protein as a reporter of receptor activity. […] Upon agonist-mediated GPCR activation, β-arrestins rapidly redistribute en masse to ligand-activated plasma membrane receptors (on the other hand, β-arrestins remain in the cytosol upon antagonist binding to the receptor). Activated GPCR/β-arrestin complexes will concentrate in clathrin-coated pits and/or internal vesicles where most GPCRs normally undergo internalization. At this juncture, the β-arrestin either (i) dissociates and returns to the cytoplasm, or (ii) further redistributes with the receptor into an intracellular endosomal vesicle, depending on the receptor type. It is the agonist-induced redistribution of β-arrestin-GFP into progressively smaller compartments (cytosolic compartment>plasma membrane>coated pit>endosomal compartment) that enables imaging of receptor activation.
This cell line is herein referred to as UGPR35β. Selected cells were maintained at 200 μg/ml G418® and 100 μg/ml Zeocin® at 37° C. and 5% CO2.
U20S cells expressing HA-GPR35a/βarr2-GFP (also known as UGPR35β cells) were plated in a 24-well plate onto coverslips that were coated with poly-D-lysine (0.02 mg/ml; Sigma-Aldrich, St. Louis, Mo., USA) for 1 hour. Cells were maintained at 37° C., 5% CO2 until ready for experiment (90% confluent). Cells were washed once with Hanks' balanced salt solution (HBSS, Cellgro, Mediatech, Inc, Manassas, Va., USA) comprising CaCl2 0.14 g/L, KCl 0.4 g/L, KH2PO4 0.06 g/L, MgSO4 0.097 g/L, NaCl 8 g/L, Na2HPO4 0.047 g/L, NaHCO3 0.35 g/L, and D-glucose 1.0 g/L. For receptor activation, agonist-evoked redistribution of βarr2-GFP was measured by applying the drug for 40 minutes. For measuring the effects of antagonist, agonist and antagonist were co-applied.
Cells were then fixed with 4% paraformaldehyde for 20 minutes at room temperature, followed by three washes with HBSS.
βarr2-GFP aggregates were identified by a wavelet-based, Microsoft Windows-compatible computer program written in the MatLab programming environment. A program algorithm extracts from two dimensional images those pixels that generate objects of interest that fall within a predetermined range of sizes and intensities and that are embedded among widely varying local backgrounds (L. Barak, available from the Duke University GPCR Assay Bank). Concentration-effect curves for agonist-mediated receptor activation were analyzed by non-linear regression techniques using GraphPad Prism 4.0 software (GraphPad) and data were fitted to sigmoidal dose-response curves to obtain EC50 or IC50 values. Statistical analysis was performed using one-way analysis of variance (ANOVA) followed by Dunnett's post-test or two-tailed unpaired student t test. P values of <0.05 are considered significant.
A prototypical U2OS osteosarcoma cell line that permanently expresses β-arrestin-GFP and N-terminal triple HA-tagged human GPR35a was used to screen ligands for agonism or antagonism against the GPR35 receptor. […] Endogenous receptors are invisible to the assay because there are too few endogenous receptors of any type compared to the number of β-arrestin molecules in the cell to provide a measurable response.
Upon agonist-mediated GPCR activation, β-arrestins rapidly redistribute en masse to ligand-activated plasma membrane receptors, and then the activated GPCR/arrestin complexes concentrate in clathrincoated pits and/or internal vesicles.
Concentration response curves for β-arrestin2 aggregation were obtained for compounds of interest. For this study, UGPR35β cells were treated with different concentrations of a compound of interest and images of the cells (acquired in triplicate in three or more independent experiments) were analyzed for fluorescence.
For `O=C(O)c1cc2cc(Br)ccc2cc1O` [Compound 7, 7-bromo-3-hydroxy-2-naphthoic acid], the “potency as GPR35 agonist, in words” value is on record as “much less potent”. For the molecule `O=C(O)c1cc2ccccc2cc1O` [Compound 8, 3-hydroxy-2-naphthoic acid], the “potency as GPR35 agonist, in words” value is given as “much less potent”.

The experiment is the same for the next values; noted with them: concentration response analysis, read-out: β-arrestin response (EC50).
Regarding `O=C(O)c1cc2cc(Br)ccc2c(Cc2c(O)c(C(=O)O)cc3cc(Br)ccc23)c1O` [Compound 3, 7,7′-dibromo-pamoic acid], the 50% effective concentration (EC50) is 169 nM.

Regarding `O=C(O)c1cc2ccccc2c(-c2c(O)c(C(=O)O)cc3ccccc23)c1O` [Compound 4, 1,1′-binaphthyl-2,2′-diol-3,3′-dicarboxylic acid], the EC50 was 286 nM. As to `O=C(O)c1cc2cc(Br)ccc2cc1O` [Compound 7, 7-bromo-3-hydroxy-2-naphthoic acid], the EC50 stood at 6900 nM.

Take `O=C(O)c1cc2ccccc2cc1O` [Compound 8, 3-hydroxy-2-naphthoic acid]: the EC50 was found to be 86000 nM. Still for that read-out and setting: the same measure for oxantel pamoate [Compound 2]: 91 nM.

Staying with this experiment, now noted: concentrations up to 30 μM.
Consider “5-(4-chloro-3-methylphenyl-1-[(4-methylphenyl)methyl]-N-[(1S,2S,4R)-1,3,3-trimethylbicyclo[2.2.1]hept-2-yl]-1H-pyrazole-3-carboxamide [SR144528]”, for which the “activation of GPR35 (distribution of βarr2-GFP different from basal state)” value was “None of the compounds at concentrations up to 30 μM activated GPR35”. For `CCCCCCC(C)(C)c1cc(O)c2c(c1)OC(C)(C)C1CCC(C)CC21` (stereo not shown) [AM4056, 1-hydroxy-1′,1′-dimethylheptylhexahydrocannabinol], the “activation of GPR35 (distribution of βarr2-GFP different from basal state)” value was “None of the compounds at concentrations up to 30 μM activated GPR35”.

With `CCCCCCC(C)(C)c1ccc([C@@H]2C[C@H](O)CC[C@H]2CCCO)c(O)c1` [CP55,940, 2-[(1R,2R,5R)-5-hydroxy-2-(3-hydroxypropyl)cyclohexyl]-5-(2-methyloctan-2-yl)phenol], the “activation of GPR35 (distribution of βarr2-GFP different from basal state)” value was “None of the compounds at concentrations up to 30 μM activated GPR35”. With `C=C(C)[C@@H]1CCC(C)=C[C@H]1c1c(C)cc(O)cc1O` [Compound O-1602, 5-methyl-4-[(1R,6R)-3-methyl-6-(1-methyethenyl)-2-cyclohexen-1-yl]-1,3-benzenediol], the “activation of GPR35 (distribution of βarr2-GFP different from basal state)” value was “None of the compounds at concentrations up to 30 μM activated GPR35”. The same measure, in the same setting: the same measure for `CCCCCCC(C)(C)c1cc(O)c2c(c1)OC(C)(C)[C@@H]1CC=C(CO)C[C@@H]21` [HU-210, (6aR,10aR)-9-(hydroxymethyl)-6,6-dimethyl-3-(2-methyloctan-2-yl)-6a,7,10,10a-tetrahydrobenzo[c]chromen-1-ol]: “None of the compounds at concentrations up to 30 μM activated GPR35”; for `CCCn1c(C)c(C(=O)c2cccc3ccccc23)c2ccccc21` [JWH-015, (2-methyl-1-propyl-1H-indol-3-yl)-1-naphthalenylmethanone]: “None of the compounds at concentrations up to 30 μM activated GPR35”; for `Cc1c(/C=N/N2CCCCC2)nn(-c2ccc(Cl)cc2Cl)c1-c1ccc(Cl)cc1` [PIMSR1, 5-(4-chlorophenyl)-1-(2,4-dichlorophenyl)-4-methyl-3-[(E)-piperidinoiminomethyl]-1H-pyrazole]: “None of the compounds at concentrations up to 30 μM activated GPR35”. Turning to `Cc1c(/C=C/C2CCCCC2)nn(-c2ccc(Cl)cc2Cl)c1-c1ccc(Cl)cc1` [VCHSR1, 5-(4-chlorophenyl)-3-[(E)-2-cyclohexylethenyl]-1-(2,4-dichlorophenyl)-4-methyl-1H-pyrazole], the “activation of GPR35 (distribution of βarr2-GFP different from basal state)” value is recorded as “None of the compounds at concentrations up to 30 μM activated GPR35”. Consider `Cc1c(C(=O)c2cccc3ccccc23)c2cccc3c2n1[C@H](CN1CCOCC1)CO3` [WIN55212-2, (R)-(+)-[2,3-dihydro-5-methyl-3-(4-morpholinylmethyl)pyrrolo[1,2,3-de)-1,4-benzoxazin-6-yl]-1-napthalenylmethanone], for which the “activation of GPR35 (distribution of βarr2-GFP different from basal state)” value is given as “None of the compounds at concentrations up to 30 μM activated GPR35”. On the same count and under the same terms, under `CCCCC/C=C\C/C=C\C/C=C\C/C=C\CCCC(=O)NCCO` [anandamide] stands “None of the compounds at concentrations up to 30 μM activated GPR35”. Consider `C=C(C)[C@@H]1CCC(C)=C[C@H]1c1c(O)cc(CCCCC)cc1O` [cannabidiol], for which the “activation of GPR35 (distribution of βarr2-GFP different from basal state)” value was “None of the compounds at concentrations up to 30 μM activated GPR35”. Same read-out and setting: the same measure for `CCCCCc1cc(O)c2c(c1)OC(C)(C)c1ccc(C)cc1-2` [cannabinol]: “None of the compounds at concentrations up to 30 μM activated GPR35”; for `CCCCCc1cc(O)c2c(c1)OC(C)(C)[C@@H]1CCC(C)=C[C@@H]21` [delta-9-tetrahydrocannabinol]: “None of the compounds at concentrations up to 30 μM activated GPR35”. Still for that read-out and setting: the same measure for lysophosphatidic acid: “None of the compounds at concentrations up to 30 μM activated GPR35”; for lysophosphatidylinositol: “None of the compounds at concentrations up to 30 μM activated GPR35”.

Still in this experiment, the particulars now being: mean (95% confidence interval in brackets in the text), read-out: EC50 for β-arrestin2 aggregation.
Consider `O=C(O)c1cc([N+](=O)[O-])ccc1NCCCc1ccccc1` [Compound 6, 5-Nitro-2-(3-phenylpropylamino)-benzoic acid], for which the EC50 is 4300 nM.
